From ChEMBL document CHEMBL1828530, “Quinonoid and phenazine compounds: synthesis and evaluation against H37Rv, rifampicin and isoniazid-resistance strains of Mycobacterium tuberculosis” (Eur J Med Chem, 2011)
Converted amounts (≈) assume the structure as drawn.

Key:
[1] = test system: Mycobacterium tuberculosis; test: Antitubercular activity against rifampicin-resistant Mycobacterium tuberculosis ATCC 35338 harboring His-526-Tri mutation in rpoB gene after 9 days by resazurin reduction assay; format: functional
[2] = test system: Mycobacterium tuberculosis; test: Antitubercular activity against isoniazid-resistant Mycobacterium tuberculosis ATCC 35822 harboring Ser-315-Tri mutation in katG gene after 9 days by resazurin reduction assay; format: functional

Row | SMILES | MIC [1] [µM] | MIC [2] [µM]
1 | CCCC1=C(O)C(=O)C2=C(CCCC2)C1=O | 113.5 (≈ 25 µg/mL) | 113.5 (≈ 25 µg/mL)
2 | CC(C)CC1=C(OC2(CC(C)C)C(=O)c3ccccc3-c3nc4ccccc4nc32)C(=O)c2ccccc2C1=O (stereo not drawn) | >188.3 | >188.3
3 | CC(C)CCC1=C(O)C(=O)C2=C(CCCC2)C1=O | 50.4 (≈ 12.5 µg/mL) | 100.8 (≈ 25 µg/mL)
4 | CC(C)CC1=C(O)C(=O)C2=C(CCCC2)C1=O | 53.35 (≈ 12.5 µg/mL) | 106.7 (≈ 25 µg/mL)
5 | CC(C)CC1=C(OC2(CC(C)C)C(=O)C3=C(CCCC3)c3nc4ccccc4nc32)C(=O)C2=C(CCCC2)C1=O (stereo not drawn) | 46.4 (≈ 25 µg/mL) | 46.4 (≈ 25 µg/mL)
6 | CC(C)Cc1c2[nH]c3ccccc3nc-2c2c(c1=O)CCCC2 | >326.8 | >326.8
7 | C=CCc1c2[nH]c3ccccc3nc-2c2ccccc2c1=O | 174.8 (≈ 50.1 µg/mL) | 43.7 (≈ 12.5 µg/mL)
8 | NNC(=O)c1ccncc1 [ISONIAZID] | – | 1.45 (≈ 0.199 µg/mL)
9 | CC(C)CCc1c2[nH]c3ccccc3nc-2c2c(c1=O)CCCC2 | 39.1 (≈ 12.5 µg/mL) | >312.5
10 | CC(C)=CC1=C(O)C(=O)c2ccccc2C1=O | 13.7 (≈ 3.13 µg/mL) | 438.6 (≈ 100 µg/mL)
11 | CC(C)=CCC1=C(O)C(=O)c2ccccc2C1=O [LAPACHOL] | 206.6 (≈ 50.1 µg/mL) | 413.2 (≈ 100 µg/mL)
12 | CC(C)=CCC1=C(OC2(CC=C(C)C)C(=O)c3ccccc3-c3nc4ccccc4nc32)C(=O)c2ccccc2C1=O (stereo not drawn) | 180.2 (≈ 99.9 µg/mL) | >180.2
13 | C=CCC1=C(O)C(=O)c2ccccc2C1=O | 116.8 (≈ 25 µg/mL) | 467.3 (≈ 100 µg/mL)
14 | CCCC1=C(OC2(CCC)C(=O)c3ccccc3-c3nc4ccccc4nc32)C(=O)c2ccccc2C1=O (stereo not drawn) | >198.8 | >198.8
15 | CC(C)CCC1=C(O)C(=O)c2ccccc2C1=O | 205 (≈ 50.1 µg/mL) | 205 (≈ 50.1 µg/mL)
16 | CO[C@H]1/C=C/O[C@@]2(C)Oc3c(C)c(O)c4c(O)c(c(/C=N/N5CCN(C)CC5)c(O)c4c3C2=O)NC(=O)/C(C)=C\C=C\[C@H](C)[C@H](O)[C@@H](C)[C@@H](O)[C@@H](C)[C@H](OC(C)=O)[C@@H]1C [RIFAMPIN] | 2.43 (≈ 2 µg/mL) | –
17 | CCCC1=C(O)C(=O)c2ccccc2C1=O | 231.25 (≈ 50 µg/mL) | 462.5 (≈ 100 µg/mL)
18 | CC(C)CCC1=C(OC2(CCC(C)C)C(=O)C3=C(CCCC3)c3nc4ccccc4nc32)C(=O)C2=C(CCCC2)C1=O (stereo not drawn) | 176.4 (≈ 100 µg/mL) | >176.4
19 | CC(C)CC1=C(O)C(=O)c2ccccc2C1=O | 108.7 (≈ 25 µg/mL) | 217.4 (≈ 50.1 µg/mL)
20 | CCCC1=C(OC2(CCC)C(=O)C3=C(CCCC3)c3nc4ccccc4nc32)C(=O)C2=C(CCCC2)C1=O (stereo not drawn) | 195.7 (≈ 99.9 µg/mL) | >195.7
21 | CC(C)Cc1c2[nH]c3ccccc3nc-2c2ccccc2c1=O | >331.1 | >331.1
22 | CC(C)CCc1c2[nH]c3ccccc3nc-2c2ccccc2c1=O | 39.5 (≈ 12.5 µg/mL) | 39.5 (≈ 12.5 µg/mL)
23 | CC(C)CCC1=C(OC2(CCC(C)C)C(=O)c3ccccc3-c3nc4ccccc4nc32)C(=O)c2ccccc2C1=O (stereo not drawn) | >178.9 | >178.9
24 | CC(C)=Cc1c2[nH]c3ccccc3nc-2c2ccccc2c1=O | 83.3 (≈ 25 µg/mL) | 83.3 (≈ 25 µg/mL)
25 | C=CCC1=C(OC2(CC=C)C(=O)c3ccccc3-c3nc4ccccc4nc32)C(=O)c2ccccc2C1=O (stereo not drawn) | >200.8 | >200.8
